Source: patent US7605272B2, “IGF-1R inhibitor” (Kyowa Hakko Kirin Co., Ltd., priority 2005, dated 2009)
Where a name gives a salt, the structure may show the parent alone. Read-outs that look alike come from different tables or passages of the source.

Experiments:
KMS-11 = test: Cytostatic activity on human multiple myeloma cell line KMS-11 (WST-1); type: cell-based; settings: for inhibition at 1 µM / inhibition at 10 µM: Homo sapiens, KMS-11, 72 h; for inhibition at 1 µM: read-out: cytostatic rate (%) KMS-11 (1 μmol/L); for inhibition at 10 µM: read-out: cytostatic rate (%) KMS-11 (10 μmol/L)
In short: (§1)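 Cells pre-cultured 24 h at 37 °C, 5% CO2, then exposed 72 h to compound at final 1 or 10 μmol/L (0.1% DMSO). WST-1 added for 2 h, absorbance at 450 nm (ref 690 nm). Cytostatic rate = 100 minus relative growth, with DMSO control as 100% and blank as 0%.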

NCI-H929 = test: Cytostatic activity on human multiple myeloma cell line NCI-H929 (WST-1); type: cell-based; settings: for inhibition at 1 µM / inhibition at 10 µM: Homo sapiens, NCI-H929, 72 h; for inhibition at 1 µM: read-out: cytostatic rate (%) H929 (1 μmol/L); for inhibition at 10 µM: read-out: cytostatic rate (%) H929 (10 μmol/L)
In short: as §1

IGF-1R = target: T1, IGF-1R (Homo sapiens, UniProt P08069); test: IGF-1R inhibitory activity (kinase reaction, time-resolved fluoroimmunoassay); type: biochemical; settings: test compound 10 μmol/L
T1 construct: purchased Upstate Co. 14-465
In short: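 Compounds were tested at a single 10 μmol/L concentration. Each was incubated with recombinant IGF-1R (200 μg/L), 10 mmol/L ATP, MgCl2/MnCl2 and Na3VO4 (pH 7.5) on immobilized poly(Glu-Tyr) peptide for 30 min at 24° C. Eu-anti-phosphotyrosine time-resolved fluorescence (340/615 nm) gave relative activity against no-compound and no-enzyme wells, reported as % inhibition.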

[1] = KMS-11 cells, test compound 1 μmol/L, WST-1
[2] = NCI-H929 cells, test compound 1 μmol/L, WST-1
[3] = IGF-1R active recombinant enzyme

T1 sequence (P08069 959-1367 limits assumed): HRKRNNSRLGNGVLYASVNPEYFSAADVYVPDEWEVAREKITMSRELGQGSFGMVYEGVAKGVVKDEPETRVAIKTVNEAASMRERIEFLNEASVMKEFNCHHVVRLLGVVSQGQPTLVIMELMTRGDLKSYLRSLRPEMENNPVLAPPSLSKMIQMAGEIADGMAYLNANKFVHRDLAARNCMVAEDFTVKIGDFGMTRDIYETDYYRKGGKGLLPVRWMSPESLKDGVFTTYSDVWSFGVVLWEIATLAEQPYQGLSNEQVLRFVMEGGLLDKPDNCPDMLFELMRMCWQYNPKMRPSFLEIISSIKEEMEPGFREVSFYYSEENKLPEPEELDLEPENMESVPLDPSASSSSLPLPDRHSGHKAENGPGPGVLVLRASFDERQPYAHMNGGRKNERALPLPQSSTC

SMILES | inhibition at 10 µM (IGF-1R; [3]) [%] | inhibition at 1 µM (KMS-11; 1 μmol/L, 72 hours) [%] | inhibition at 1 µM (NCI-H929; 1 μmol/L, 72 hours) [%] | inhibition at 10 µM (KMS-11; 10 μmol/L, 72 hours) [%] | inhibition at 10 µM (NCI-H929; 10 μmol/L, 72 hours) [%] | also measured
Nc1cccc2c1C(=O)N(c1cc(C(=O)N3CCC(N4CCOCC4)CC3)ccc1/C=C/c1n[nH]c3ccccc13)C2=O [Compound 317, (E)-4-amino-2-{2-[2-(1H-indazol-3-yl)vinyl]-5-[4-(morpholin-4-yl)piperidin-1-ylcarbonyl]phenyl}isoindole-1,3-dione] | 103 |  |  |  |  | inhibition at 1 µM (KMS-11; [1]): 105%; inhibition at 1 µM (NCI-H929; [2]): 114%
O=C(Nc1cc(C(=O)N2CCN(CCO)CC2)ccc1/C=C/c1n[nH]c2ccccc12)c1cccs1 [Compound 289, (E)-N-{5-[4-(2-hydroxyethyl)piperazin-1-ylcarbonyl]-2-[2-(1H-indazol-3-yl)vinyl]phenyl}thiophene-2-carboxamide] | 93.5 | 73.6 | 102 |  |  | 
COc1c(OCCN2C(=O)CNC2=O)ccc(/C=C/c2n[nH]c3ccccc23)c1NC(=O)c1sccc1C [Compound 334, (E)-N-{6-[2-(1H-indazol-3-yl)vinyl]-2-methoxy-3-[2-(2,5-dioxoimidazolidin-1-yl)ethoxy]phenyl}-3-methylthiophene-2-carboxamide] | 102 |  |  |  |  | inhibition at 1 µM (KMS-11; [1]): 97.5%; inhibition at 1 µM (NCI-H929; [2]): 111%
Cc1cc(N)sc1C(=O)Nc1ccccc1/C=C/c1n[nH]c2ccccc12 [Compound 67, (E)-5-amino-N-{2-[2-(1H-indazol-3-yl)vinyl]phenyl}-3-methylthiophene-2-carboxamide] | 95.6 |  |  | 100 | 119 | 
Cc1ccsc1C(=O)Nc1cc(CN2CCOCC2)ccc1/C=C/c1n[nH]c2ccccc12 [Compound 224, (E)-N-{2-[2-(1H-indazol-3-yl)vinyl]-5-(morpholin-4-ylmethyl)phenyl}-3-methylthiophene-2-carboxamide hydrochloride] | 100 | 119 | 119 |  |  | 
Cc1ccsc1C(=O)Nc1cc(N2CCNCC2)ccc1/C=C/c1n[nH]c2ccccc12 [Compound 274, (E)-N-{2-[2-(1H-indazol-3-yl)vinyl]-5-piperazin-1-ylphenyl}-3-methylthiophene-2-carboxamide] | 104 | 108 | 114 |  |  | 
Cc1ccsc1C(=O)Nc1cc(CN2CCN(CCCO)CC2)ccc1/C=C/c1n[nH]c2ccccc12 [Compound 277, (E)-N-{5-[4-(3-hydroxypropyl)piperazin-1-ylmethyl]-2-[2-(1H-indazol-3-yl)vinyl]phenyl}-3-methylthiophene-2-carboxamide] | 99.5 | 107 | 119 |  |  | 
COCCCN1CCN(Cc2ccc(/C=C/c3n[nH]c4ccccc34)c(N3Cc4c(N)cccc4C3=O)c2)CC1 [Compound 323, (E)-4-amino-2-{2-[2-(1H-indazol-3-yl)vinyl]-5-[4-(3-methoxypropyl)piperazin-1-ylmethyl]phenyl}-2,3-dihydroisoindol-1-one] |  |  |  |  |  | cytostatic rate (%) KMS-11 (1 μmol/L) (KMS-11; [1]): 73.8%; cytostatic rate (%) H929 (1 μmol/L) (NCI-H929; [2]): 107.6%; inhibitory activity (%) at 10 μmol/L (IGF-1R; [3]): 105.8%
O=C(NCc1cccs1)c1ccccc1/C=C/c1n[nH]c2ccccc12 [Compound 141, (E)-2-[2-(1H-indazol-3-yl)vinyl]-N-(thiophen-2-ylmethyl)benzamide] | 97.1 |  |  | 117 | 114 | 
COCCN(CCN1CCOCC1)C(=O)c1ccc(/C=C/c2n[nH]c3ccccc23)c(NC(=O)c2sccc2C)c1 [Compound 249, (E)-N-(2-[2-(1H-indazol-3-yl)vinyl]-5-{N-(2-methoxyethyl)-N-[2-(morpholin-4-yl)ethyl]carbamoyl}phenyl)-3-methylthiophene-2-carboxamide] | 100 | 113 | 113 |  |  | 
Cc1ccsc1C(=O)Nc1ccc(N2CCC(S(C)(=O)=O)CC2)cc1/C=C/c1n[nH]c2ccccc12 [Compound 227, (E)-N-{2-[2-(1H-indazol-3-yl)vinyl]-4-(4-methanesulfonylpiperidin-1-yl)phenyl}-3-methylthiophene-2-carboxamide hydrochloride] | 98.9 | 52.9 | 113 |  |  | 
CCC(O)(CC)C(=O)Nc1ccccc1/C=C/c1n[nH]c2ccccc12 [Compound 45, (E)-2-ethyl-2-hydroxy-N-{2-[2-(1H-indazol-3-yl)vinyl]phenyl}butylamide] |  |  |  |  |  | cytostatic rate (%) KMS-11 (10 μmol/L) (KMS-11; 10 μmol/L, 72 hours): 98.3%; cytostatic rate (%) H929 (10 μmol/L) (NCI-H929; 10 μmol/L, 72 hours): 115.0%; inhibitory activity (%) at 10 μmol/L (IGF-1R; [3]): 97.4%
Cc1ccsc1C(=O)Nc1cc(CN2CCC(CCO)CC2)ccc1/C=C/c1n[nH]c2ccccc12 [Compound 311, (E)-N-{5-[4-(2-hydroxyethyl)piperidin-1-ylmethyl]-2-[2-(1H-indazol-3-yl)vinyl]phenyl}-3-methylthiophene-2-carboxamide] | 104 |  |  |  |  | inhibition at 1 µM (KMS-11; [1]): 111%; inhibition at 1 µM (NCI-H929; [2]): 117%
Cc1ccsc1C(=O)Nc1cc(C(=O)N(C)CCO)ccc1/C=C/c1n[nH]c2ccccc12 [Compound 327, (E)-N-{5-[N-(2-hydroxyethyl)-N-methylcarbamoyl]-2-[2-(1H-indazol-3-yl)vinyl]phenyl}-3-methylthiophene-2-carboxamide] | 101 |  |  |  |  | inhibition at 1 µM (KMS-11; [1]): 98%; inhibition at 1 µM (NCI-H929; [2]): 116%
COc1c(OCCCN2CCOCC2)ccc(/C=C/c2n[nH]c3ccccc23)c1NC(=O)c1sccc1C [Compound 342, (E)-N-{6-[2-(1H-indazol-3-yl)vinyl]-2-methoxy-3-(3-morpholin-4-yl)propoxyphenyl}-3-methylthiophene-2-carboxamide] |  |  |  |  |  | cytostatic rate (%) KMS-11 (1 μmol/L) (KMS-11; [1]): 122.6%; cytostatic rate (%) H929 (1 μmol/L) (NCI-H929; [2]): 118.7%; inhibitory activity (%) at 10 μmol/L (IGF-1R; [3]): 101.6%
COc1c(OCCCN2CCC[C@H]2CO)ccc(/C=C/c2n[nH]c3ccccc23)c1NC(=O)c1sccc1C [Compound 340, (E)-(s)-N-{3-[3-(2-hydroxymethylpyrrolidin-1-yl)propoxy]-6-[2-(1H-indazol-3-yl)vinyl]-2-methoxyphenyl}-3-methylthiophene-2-carboxamide] | 103 |  |  |  |  | inhibition at 1 µM (KMS-11; [1]): 118%; inhibition at 1 µM (NCI-H929; [2]): 121%
COc1cc(/C=C/c2n[nH]c3ccccc23)c(NC(=O)c2sccc2C)cc1OC [Compound 95, (E)-N-{2-[2-(1H-indazol-3-yl)vinyl]-4,5-dimethoxyphenyl}-3-methylthiophene-2-carboxamide] |  |  |  | 138 | 121 | inhibition at 10 µM (IGF-1R): 97.2%
COc1cccc(/C=C/c2n[nH]c3ccccc23)c1NC(=O)c1sccc1C [Compound 94, (E)-N-{2-[2-(1H-indazol-3-yl)vinyl]-6-methoxyphenyl}-3-methylthiophene-2-carboxamide] |  |  |  | 143 | 125 | inhibition at 10 µM (IGF-1R): 95.4%
Cc1ccsc1C(=O)Nc1cc(C(=O)N(C)C2CCNCC2)ccc1/C=C/c1n[nH]c2ccccc12 [Compound 297, (E)-N-{2-[2-(1H-indazol-3-yl)vinyl]-5-[N-methyl-N-(piperidine-4-yl)carbamoyl]phenyl}-3-methylthiophene-2-carboxamide] | 101 | 94.5 | 116 |  |  | 
Cc1ccc(C(=O)Nc2ccccc2/C=C/c2n[nH]c3ccccc23)cc1 [Compound 5, (E)-N-{2-[2-(1H-indazol-3-yl)vinyl]phenyl}-4-methylbenzamide] | 99.1 |  |  | 129 | 116 | 
O=C(Nc1ccccc1/C=C/c1n[nH]c2ccccc12)C1CCC1 [Compound 44, (E)-N-{2-[2-(1H-indazol-3-yl)vinyl]phenyl}cyclobutanecarboxamide] | 98 |  |  | 113 | 115 | 
O=C(Nc1ccccc1/C=C/c1n[nH]c2ccccc12)c1ccsc1 [Compound 31, (E)-N-{2-[2-(1H-indazol-3-yl)vinyl]phenyl}thiophene-3-carboxamide] | 99.7 |  |  | 117 | 114 | 
COCCN1CCN(c2ccc(/C=C/c3n[nH]c4ccccc34)c(NC(=O)c3sccc3C)c2)CC1 [Compound 279, (E)-N-{2-[2-(1H-indazol-3-yl)vinyl]-5-[4-(2-methoxyethyl)piperazin-1-yl]phenyl}-3-methylthiophene-2-carboxamide] | 98.2 | 111 | 112 |  |  | 
COc1cscc1C(=O)Nc1ccccc1/C=C/c1n[nH]c2ccccc12 [Compound 53, (E)-N-{2-[2-(1H-indazol-3-yl)vinyl]phenyl}-4-methoxythiophene-3-carboxamide] | 98.9 |  |  | 126 | 114 | 
Cc1nnsc1C(=O)Nc1ccccc1/C=C/c1n[nH]c2ccccc12 [Compound 71, (E)-N-{2-[2-(1H-indazol-3-yl)vinyl]phenyl}-4-methyl-[1,2,3]thiadiazole-5-carboxamide] | 99.4 |  |  | 114 | 115 | 
